Where two headings read alike, the source gives them in different places.
How the values were obtained:
carrageenin-oedema = assay: Anti-inflammatory activity, carrageenin-oedema method; assay type: in vivo; settings: rats, oral 3 to 30 mg/Kg in carboxymethylcellulose; natural product = 1.0
Experimental: (§6) Study of the anti-inflammatory (I) and analgesic (II) properties (pharmacodynamics) and gastrointestinal tolerance (III) (toxicity) of the test compounds after oral administration of doses ranging from 3 to 30 mg/Kg in carboxymethylcellulose suspensions and constructing dose-responsecurves. […] Activities are expressed as the potency ratio compared to the natural product used as a unit standard.

Swiss mice = assay: Analgesic activity (Hendershot et al.); assay type: in vivo; settings: oral 3 to 30 mg/Kg in carboxymethylcellulose, natural product = 1.0
Experimental: as §6

gastropathy = assay: Gastric tolerance, severity of induced gastropathy; settings: rats, oral 3 to 30 mg/Kg in carboxymethylcellulose; natural product = 1.0
Experimental: Gastric tolerance was measured by oral administration to rats assessing the severity of the gastropathy induced in accordance with the criteria described by Wallace et al. (Am. J. Physiol. 259, G642, 1990).
Study of the anti-inflammatory (I) and analgesic (II) properties (pharmacodynamics) and gastrointestinal tolerance (III) (toxicity) of the test compounds after oral administration of doses ranging from 3 to 30 mg/Kg in carboxymethylcellulose suspensions and constructing dose-responsecurves.
Activities are expressed as the potency ratio compared to the natural product used as a unit standard. The nitroderivative is that of the shown examples, the natural reference compound is that shown as a reference.

[1] = test system: human platelets stimulated by thrombin; assay: Platelet anti-aggregating activity in vitro; assay type: cell-based; settings: 10^-5 to 10^-7 molar range, natural product = 1.0
Excerpt: (§1) Example of the anti-cyclooxygenase (I), platelet anti-aggregating (II) and vasodilative (III) properties of the test compounds tested in vitro at concentrations in the molar range from 10^-5 to 10^-7 of the product in water/alcohol with the addition of small amounts of DMSO (dimethylsulphoxide). The activities are expressed as the potency ratio versus the natural product used as a unit standard, as stated in Table

isolated rat aorta = assay: Vasodilative activity, inhibition of contraction induced by epinephrine; settings: in vitro, 10^-5 to 10^-7 molar range
Excerpt: as §1

cyclo-oxygenase = assay: Anti-cyclooxygenase activity; assay type: cell-based
Experimental: (§2) The activity inhibiting cyclo-oxygenase was determined in isolated cells. Endothelial cells of bovine aorta were used as a source of COX-1 and macrophage line J774.2 as a source of COX-2. The same conditions described by Mitchell et al. (Proc. Nat. Acad. Sci. 90, 11693, 1993) for growth and the viability test were used.
(§3) In brief, the cells were incubated for 30 minutes with scalar concentrations of the test product and the substrate (arachidonic acid) was then added and incubated for another 15 minutes. Enzyme activity was determined radioimmunologically by measuring the formation of 6-keto-PGF 1 alpha. In the case of cell lines J.774.2, the cells were incubated for 12 hours with endotoxin to promote COX-2 formation.
as §1

COX-1 = molecular target: T1, COX-1 (Bos taurus, UniProt O62664); assay: COX-1 inhibition in isolated cells; assay type: cell-based, bovine; settings: read-out: COX-1 response, % of the controls with response variability
T1 construct: Endothelial cells of bovine aorta were used as a source of COX-1; endogenous in cells; host or cells: bovine aortic endothelial cells
T1 sequence (O62664 25-600): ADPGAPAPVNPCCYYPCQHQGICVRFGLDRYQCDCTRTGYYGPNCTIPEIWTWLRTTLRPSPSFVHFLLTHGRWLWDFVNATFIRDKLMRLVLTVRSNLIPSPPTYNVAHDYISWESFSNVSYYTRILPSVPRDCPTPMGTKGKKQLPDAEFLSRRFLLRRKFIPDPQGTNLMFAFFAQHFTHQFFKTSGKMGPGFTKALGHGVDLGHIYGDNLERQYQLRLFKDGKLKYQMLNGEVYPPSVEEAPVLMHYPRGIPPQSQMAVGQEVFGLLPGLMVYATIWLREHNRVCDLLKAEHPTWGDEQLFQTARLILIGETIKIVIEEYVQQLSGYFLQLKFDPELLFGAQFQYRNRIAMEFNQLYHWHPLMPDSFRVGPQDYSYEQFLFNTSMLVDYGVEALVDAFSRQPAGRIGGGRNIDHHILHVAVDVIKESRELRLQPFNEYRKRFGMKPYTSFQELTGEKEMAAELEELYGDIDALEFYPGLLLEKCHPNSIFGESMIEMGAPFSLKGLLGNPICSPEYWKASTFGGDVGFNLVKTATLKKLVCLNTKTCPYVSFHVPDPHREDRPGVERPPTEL
Experimental: as §2, §3
(§4) Study of the anti-cyclooxygenase (COX-1/COX-2) properties in isolated cells.
(§5) Response expressed as a % of the controls with relative response variability.

COX-2 = molecular target: T2, COX-2 (Mus musculus, UniProt Q05769); assay: COX-2 inhibition in isolated cells; assay type: cell-based
T2 construct: endogenous in cells; host or cells: J774.2 macrophages, 12 h with endotoxin
T2 sequence (Q05769 18-604): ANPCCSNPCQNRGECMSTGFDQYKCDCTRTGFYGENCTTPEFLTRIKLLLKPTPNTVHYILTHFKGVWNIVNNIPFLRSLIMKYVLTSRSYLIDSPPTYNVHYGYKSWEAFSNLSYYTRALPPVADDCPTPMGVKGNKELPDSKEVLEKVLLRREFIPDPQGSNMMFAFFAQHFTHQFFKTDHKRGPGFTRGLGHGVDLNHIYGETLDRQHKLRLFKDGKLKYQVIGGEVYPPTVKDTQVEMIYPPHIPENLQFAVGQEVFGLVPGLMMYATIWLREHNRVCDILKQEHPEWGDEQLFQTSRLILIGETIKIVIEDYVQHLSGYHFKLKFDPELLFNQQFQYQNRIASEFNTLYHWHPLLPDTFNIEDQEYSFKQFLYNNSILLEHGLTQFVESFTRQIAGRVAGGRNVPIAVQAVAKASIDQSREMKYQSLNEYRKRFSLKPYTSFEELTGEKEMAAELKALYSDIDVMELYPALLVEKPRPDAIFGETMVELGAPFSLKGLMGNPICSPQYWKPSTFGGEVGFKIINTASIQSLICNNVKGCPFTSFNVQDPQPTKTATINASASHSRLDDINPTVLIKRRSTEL
Experimental: as §2, §3, §4, §5

nitrosynthetase (NOS) = assay: Nitrosynthetase (NOS) activity induced by LPS in rats; assay type: in vivo, rat; settings: oral, LPS only = 100
Experimental: The nitrosynthetase inhibition activity induced by lipopolysaccharide (LPS) was determined in rat neutrophils and stomach after administration of one of the test compounds and compared with that obtained after treatment of the suspension vehicle only.
In brief, Wistar rats fasting for 24 hours before treatment were orally administered the test product (10 mg/Kg) and intravenously (caudal vein) administered LPS (5 mg/Kg).
Four hours later the animals were sacrificed and the blood--for neutrophils isolation--and the stomach taken.
Enzyme activity was determined in accordance with the method described by Assreuy et al. (Br. J. Pharmacol. 108, 833, 1993).
Study of the inhibitory properties of the nitrosynthetase (NOS) activity induced by liposaccharide (LPS) in rats using oral doses ranging from 5 to 20 mg/Kg suspended in a carboxymethylcellulose base.

gastric mucous membrane = assay: Gastric irritation of Tween 80 / dimethylsulphoxide suspensions; assay type: in vivo; settings: suspension with Tween 80 and dimethylsulphoxide (0.1% and 1% for nitroxybutylflurbiprofen; lower amounts for NO-flurbiprofen derivative)
[2] = J774.2, read-out: COX-2 response, % of the controls with response variability

Compound	anti-inflammatory properties (I), potency ratio versus natural reference product (carrageenin-oedema)	analgesic properties (II), potency ratio versus natural reference product (Swiss mice)	gastrointestinal tolerance (III) (toxicity), potency ratio versus natural reference product (gastropathy)	platelet anti-aggregating (II), potency ratio versus natural product [1]	vasodilative (III), % of inhibitory action of the vasospasm induced by epinephrine (isolated rat aorta) [%]	direct inhibition of cyclo-oxygenase COX-1 and COX-2 (cyclo-oxygenase; Table 4 data)	anti-cyclooxygenase (I), potency ratio versus natural product (cyclo-oxygenase; in vitro, 10^-5 to 10^-7 molar range, natural product = 1.0)	remaining activity at 100 µg/mL (COX-1; 0.1 mg/ml, endothelial cells of bovine aorta) [%]	remaining activity at 1000 µg/mL (COX-1; 1.0 mg/ml, endothelial cells of bovine aorta) [%]	remaining activity at 100 µg/mL (COX-2; 0.1 mg/ml, macrophage line J774.2 with endotoxin, read-out: COX-2 response, % of the controls with response variability) [%]	remaining activity at 1000 µg/mL (COX-2; 1.0 mg/ml, macrophage line J774.2 with endotoxin, read-out: COX-2 response, % of the controls with response variability) [%]	NOS, neutrophils; inhibition relative to the group treated with LPS only (nitrosynthetase (NOS); neutrophils)	NOS, stomach; inhibition relative to the group treated with LPS only (nitrosynthetase (NOS); stomach)	remaining activity at 100 µg/mL (COX-1) [%]	remaining activity at 1000 µg/mL (COX-1) [%]	remaining activity at 100 µg/mL (COX-2; [2]) [%]	remaining activity at 1000 µg/mL (COX-2; [2]) [%]	irritant effect on gastric mucous membrane (gastric mucous membrane)
O=C(Cc1ccccc1Nc1c(Cl)cccc1Cl)OCCOCCO[N+](=O)[O-] [Example 1b, 2-{N-[2,6-(dichloro)phenyl]amino}phenylacetate of 2-[2-(nitroxy)ethoxy]ethyl]	1.3	0.9	0.3	1.8	50	capable of directly inhibiting cyclo-oxygenase COX-1 and COX-2	1.8	49 ± 6	29 ± 4	45 ± 3	22 ± 4	52	40					
CC(C(=O)OCCCCO[N+](=O)[O-])c1ccc(-c2ccccc2)c(F)c1 (stereo not drawn) [FLURBIPROFEN NITROXYBUTYLESTER]														48 ± 18	29 ± 13	46 ± 23	22 ± 14	irritant to the gastric mucous membrane

— patent publication US5861426A, “Nitro compounds of the formula A-Xi -NO2 and their compositions having anti-inflammatory, analgesic and anti-thrombotic activities” (Nicox S.A., priority 1994, dated 1999)
